Reference: patent publication US10787446B2 (GENENTECH, INC., priority 2015, dated 2020)

The compounds below were run against T1, hNav1.7 and the β1 subunit (Homo sapiens, UniProt Q15858) (assay: Tritiated compound competitive binding to membranes from cells heterologously expressing hNav1.7 and the β1 subunit (LBA)). Conditions: competition with 100 pM [3H]compound, 18 h, room temperature; IC50 by 4 parameter logistic model.
T1 construct: expressed in transfected cells
Method in brief: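 Membranes were incubated 18 h at room temperature with 100 pM [3H]-labelled NaV1.7 inhibitor and increasing test compound in 100 mM NaCl, 20 mM Tris HCl, pH 7.4. Bound radioligand was filtered on PEI-soaked GF/C, washed, and counted by scintillation. IC50 from a 4-parameter logistic fit of % inhibition.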

T1 sequence (Q15858 whole entry): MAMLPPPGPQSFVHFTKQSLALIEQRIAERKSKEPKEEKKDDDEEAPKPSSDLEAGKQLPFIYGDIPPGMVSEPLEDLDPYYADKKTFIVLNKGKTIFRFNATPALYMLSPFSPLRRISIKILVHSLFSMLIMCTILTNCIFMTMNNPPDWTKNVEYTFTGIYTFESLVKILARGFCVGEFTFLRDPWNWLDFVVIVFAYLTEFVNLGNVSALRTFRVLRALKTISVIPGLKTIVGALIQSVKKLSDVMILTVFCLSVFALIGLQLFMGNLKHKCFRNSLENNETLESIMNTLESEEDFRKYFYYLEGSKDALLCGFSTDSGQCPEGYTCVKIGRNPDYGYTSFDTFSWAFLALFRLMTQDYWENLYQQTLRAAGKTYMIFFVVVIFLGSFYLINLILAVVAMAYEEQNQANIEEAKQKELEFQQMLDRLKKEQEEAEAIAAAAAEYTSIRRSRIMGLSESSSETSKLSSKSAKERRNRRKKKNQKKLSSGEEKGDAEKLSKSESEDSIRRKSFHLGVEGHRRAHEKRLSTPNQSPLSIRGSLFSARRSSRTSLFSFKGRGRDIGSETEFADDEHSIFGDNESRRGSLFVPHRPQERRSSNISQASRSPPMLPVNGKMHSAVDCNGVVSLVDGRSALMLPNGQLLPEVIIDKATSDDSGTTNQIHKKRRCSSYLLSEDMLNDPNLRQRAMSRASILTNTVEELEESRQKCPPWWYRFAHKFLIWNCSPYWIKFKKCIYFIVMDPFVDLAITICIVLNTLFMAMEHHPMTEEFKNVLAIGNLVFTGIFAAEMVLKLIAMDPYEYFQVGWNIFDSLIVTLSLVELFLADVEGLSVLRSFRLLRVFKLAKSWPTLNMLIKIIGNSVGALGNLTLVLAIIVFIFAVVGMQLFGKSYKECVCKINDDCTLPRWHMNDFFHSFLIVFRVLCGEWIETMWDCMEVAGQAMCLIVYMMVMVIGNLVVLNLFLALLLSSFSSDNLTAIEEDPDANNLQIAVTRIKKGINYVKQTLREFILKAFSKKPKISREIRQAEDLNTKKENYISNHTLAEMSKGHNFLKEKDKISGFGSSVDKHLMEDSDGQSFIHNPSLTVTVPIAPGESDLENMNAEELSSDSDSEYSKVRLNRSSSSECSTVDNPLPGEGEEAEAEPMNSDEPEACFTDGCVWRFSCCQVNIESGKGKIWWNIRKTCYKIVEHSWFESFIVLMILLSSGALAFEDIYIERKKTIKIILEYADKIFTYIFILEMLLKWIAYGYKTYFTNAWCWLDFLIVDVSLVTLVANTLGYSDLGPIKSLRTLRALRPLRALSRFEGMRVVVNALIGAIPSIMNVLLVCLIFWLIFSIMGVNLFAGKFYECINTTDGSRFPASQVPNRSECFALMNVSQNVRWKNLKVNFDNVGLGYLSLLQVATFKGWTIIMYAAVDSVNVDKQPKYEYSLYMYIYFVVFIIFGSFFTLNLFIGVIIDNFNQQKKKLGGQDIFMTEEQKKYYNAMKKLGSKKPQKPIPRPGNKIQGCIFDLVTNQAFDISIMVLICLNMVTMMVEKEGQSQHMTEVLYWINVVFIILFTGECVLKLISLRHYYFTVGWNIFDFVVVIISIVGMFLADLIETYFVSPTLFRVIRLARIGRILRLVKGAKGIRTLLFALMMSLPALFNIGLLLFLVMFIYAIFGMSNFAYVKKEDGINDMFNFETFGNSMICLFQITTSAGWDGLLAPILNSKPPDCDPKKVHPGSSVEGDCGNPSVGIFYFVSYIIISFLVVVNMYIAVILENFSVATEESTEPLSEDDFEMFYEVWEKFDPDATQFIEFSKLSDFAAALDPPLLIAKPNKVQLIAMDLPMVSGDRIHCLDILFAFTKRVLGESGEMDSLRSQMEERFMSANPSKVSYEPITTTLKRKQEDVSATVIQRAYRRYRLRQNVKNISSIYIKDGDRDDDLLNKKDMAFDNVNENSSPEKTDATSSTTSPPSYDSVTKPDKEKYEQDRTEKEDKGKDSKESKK
T1 sequence (Q07699 19-218 partner): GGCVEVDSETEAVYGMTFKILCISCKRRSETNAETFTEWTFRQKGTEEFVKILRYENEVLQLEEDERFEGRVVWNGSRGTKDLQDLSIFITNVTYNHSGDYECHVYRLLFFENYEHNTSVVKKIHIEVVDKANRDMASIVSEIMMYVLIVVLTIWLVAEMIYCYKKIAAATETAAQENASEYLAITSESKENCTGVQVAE

SMILES	Nav1.7 (LBA) [µM]
C[C@@H]1CCN(Cc2cc(F)c(S(=O)(=O)Nc3ncns3)cc2F)[C@H](c2ccccc2)C1 (single isomer, unassigned) [Example 6]	0.17
O=S(=O)(Nc1ncns1)c1cc(Cl)c(CN2CCCCC2c2ccncc2)cc1F (stereo not shown) [Example 69, 5-chloro-2-fluoro-4-((2-(pyridin-4-yl)piperidin-1-yl)methyl)-N-(1,2,4-thiadiazol-5-yl)benzenesulfonamide]	0.21
Cn1nccc1[C@@H]1CCCCN1[C@H]1CCOc2cc(S(=O)(=O)Nc3ncns3)ccc21 [Example 41, (S)-4-((S)-2-(1-methyl-1H-pyrazol-5-yl)piperidin-1-yl)-N-(1,2,4-thiadiazol-5-yl)chromane-7-sulfonamide]	0.00609
O=S(=O)(Nc1ncns1)c1ccc2c(c1)OCC[C@@H]2N1CCC(C(F)(F)F)CC1 [Example 44, (S)—N-(1,2,4-thiadiazol-5-yl)-4-(4-(trifluoromethyl)piperidin-1-yl)chromane-7-sulfonamide]	0.551
O=S(=O)(Nc1cccc(F)n1)c1ccc(CN2CCCC[C@@H]2c2ccccc2)c(Cl)c1 [Example 74, (R)-3-chloro-N-(6-fluoropyridin-2-yl)-4-((2-phenylpiperidin-1-yl)methyl)-benzenesulfonamide]	2.67
C[C@H](c1cc(F)c(S(=O)(=O)Nc2ncns2)cc1F)N1CCCC[C@@H]1c1ccccc1 (single isomer, unassigned) [Example 16]	3.65
O=S(=O)(Nc1ncns1)c1cc(F)c(CN2CCCC[C@H]2c2ccnnc2)cc1F (single isomer, unassigned) [Example 11]	1.26
O=S(=O)(Nc1nccs1)c1ccc2c(c1)OCC[C@H]2N1CCCC[C@H]1c1ccccc1 (single isomer, unassigned) [Example 103]	0.90
O=S(=O)(Nc1ncns1)c1cc(F)c(CN2CC[C@@H](O)C[C@H]2c2ccccc2)cc1F [Example 114, 2,5-Difluoro-4-(((2S,4R)-4-hydroxy-2-phenylpiperidin-1-yl)methyl)-N-(1,2,4-thiadiazol-5-yl)benzenesulfonamide]	9.65
CC(C)(O)[C@@H]1CCN([C@H]2CCOc3cc(S(=O)(=O)Nc4ncns4)ccc32)[C@H](c2ccc(F)cc2)C1 (single isomer, unassigned) [Example 138]	0.0035
O=S(=O)(Nc1ncns1)c1ccc2c(c1)OCC[C@@H]2N1CCC(F)(F)C[C@H]1c1ccccc1 (single isomer, unassigned) [Example 140]	0.0144
CC(C)[C@H]1CCN([C@H]2CCOc3cc(S(=O)(=O)Nc4ncns4)ccc32)[C@@H](c2ccccc2)C1 (single isomer, unassigned) [Example 129]	0.0168
Cn1nccc1[C@H]1C[C@@H](C(F)(F)F)CCN1[C@H]1CCOc2cc(S(=O)(=O)Nc3ncns3)ccc21 (single isomer, unassigned) [Example 125]	0.00448
O=S(=O)(Nc1ncns1)c1ccc2c(c1)OCC[C@H]2N1CCN(CC(F)(F)F)C[C@H]1c1ccccc1 (single isomer, unassigned) [Example 83]	0.0128
O=S(=O)(Nc1ncns1)c1ccc2c(c1)OCC[C@H]2N1CC[C@H](C(F)(F)F)C[C@@H]1c1ccn[nH]1 (single isomer, unassigned) [Example 146]	0.308
O=S(=O)(Nc1ncns1)c1ccc2c(c1)OCC[C@H]2N1CCC(F)(F)C[C@@H]1c1ccccc1 (single isomer, unassigned) [Example 141]	0.486
O=S(=O)(Nc1ncns1)c1ccc2c(c1)OCC[C@@H]2N1CCCC[C@H]1c1ccc(F)cc1 (single isomer, unassigned) [Example 76]	0.0179
O=S(=O)(Nc1ncns1)c1ccc2c(c1)OCC[C@H]2N1CCC(F)(F)C[C@@H]1c1ccc(F)cc1 (single isomer, unassigned) [Example 132]	0.0757
CC1(C)CCN(Cc2cc(F)c(S(=O)(=O)Nc3ncns3)cc2F)[C@@H](c2ccccc2)C1 (single isomer, unassigned) [Example 3]	9.28
O=S(=O)(Nc1ncns1)c1cc(F)c(CN2CC[C@H](O)C[C@@H]2c2ccccc2)cc1F (single isomer, unassigned) [Example 113]	8.59
Cn1nccc1[C@@H]1C[C@H](C(F)(F)F)CCN1[C@H]1CCOc2cc(S(=O)(=O)Nc3ncns3)ccc21 (single isomer, unassigned) [Example 123]	0.000616
O=S(=O)(Nc1ncns1)c1cc(F)c(CN2CCC3(CC3)C[C@@H]2c2ccccc2)cc1F (single isomer, unassigned) [Example 109]	1.57
O=S(=O)(Nc1ncns1)c1ccc(CN2CCCCC2c2ccccc2)c(Cl)c1 (stereo not shown) [Example 63, 3-chloro-4-((2-phenylpiperidin-1-yl)methyl)-N-(1,2,4-thiadiazol-5-yl)benzenesulfonamide]	0.609
O=S(=O)(Nc1ncns1)c1cc(F)c(CN2CC[C@@H](F)C[C@@H]2c2ccccc2)cc1F (single isomer, unassigned) [Example 30]	1.71
C[C@H]1CCCN(Cc2cc(F)c(S(=O)(=O)Nc3ncns3)cc2F)[C@H]1c1ccccc1 (single isomer, unassigned) [Example 22]	1.55
O=S(=O)(Nc1ncccn1)c1cc2c(cc1F)[C@@H](N1CC[C@@H](C(F)(F)F)C[C@H]1c1ccc(F)cc1)CCO2 (single isomer, unassigned) [Example 97]	0.0217
O=S(=O)(Nc1ncns1)c1ccc2c(c1)OCCC2N1CCOC[C@H]1c1ccccc1 (stereo partly drawn) [Example 75, 4-((R)-3-phenylmorpholino)-N-(1,2,4-thiadiazol-5-yl)chromane-7-sulfonamide]	0.0859

Next, values leading:

Nav1.7 (LBA) [µM]	SMILES
0.125	O=S(=O)(Nc1ncns1)c1ccc2c(c1)OCC[C@@H]2N1CCN(CCF)C[C@H]1c1ccc(F)cc1 [Example 223, (S)-4-((R)-4-(2-fluoroethyl)-2-(4-fluorophenyl)piperazin-1-yl)-N-(1,2,4-thiadiazol-5-yl)chromane-7-sulfonamide]
0.208	CS(=O)(=O)[C@H]1CCN([C@@H]2CCOc3cc(S(=O)(=O)Nc4ncns4)ccc32)[C@@H](c2ccc(F)cc2)C1 [Example 164, (R)-4-((2R,4S)-2-(4-fluorophenyl)-4-(methylsulfonyl)piperidin-1-yl)-N-(1,2,4-thiadiazol-5-yl)chroman-7-sulfonamide]
0.907	O=S(=O)(Nc1ncns1)c1ccc2c(c1)OCC[C@@H]2N1CCCC[C@@H]1C1CCCCC1 (single isomer, unassigned) [Example 156]
0.000878	O=S(=O)(Nc1ncns1)c1ccc2c(c1)OCC[C@@H]2N1CC[C@@](O)(C(F)(F)F)C[C@H]1c1ccc(F)cc1 [Example 168, (S)-4-((2S,4S)-2-(4-fluorophenyl)-4-hydroxy-4-(trifluoromethyl)piperidin-1-yl)-N-(1,2,4-thiadiazol-5-yl)chroman-7-sulfonamide]
0.0248	O=S(=O)(Nc1ncns1)c1ccc2c(c1)OCC[C@H]2N1CC[C@H](OC(F)(F)F)C[C@@H]1c1ccc(F)cc1 [Example 176, (R)-4-((2R,4S)-2-(4-fluorophenyl)-4-(trifluoromethoxy)piperidin-1-yl)-N-(1,2,4-thiadiazol-5-yl)chroman-7-sulfonamide]
0.0375	O=S(=O)(Nc1nccs1)c1cc2c(cc1F)[C@H](N1CC[C@@H](C(F)(F)F)C[C@H]1c1ccn[nH]1)CCO2 [Example 210, (R)-4-((2S,4R)-2-(1H-pyrazol-5-yl)-4-(trifluoromethyl)piperidin-1-yl)-6-fluoro-N-(thiazol-2-yl)chromane-7-sulfonamide]
0.249	O=S(=O)(Nc1ncns1)c1ccc2c(c1)C(F)(F)CC[C@@H]2N1CCCC[C@H]1c1cccnc1 (single isomer, unassigned) [Example 227]
3.51	O=S(=O)(Nc1ncns1)c1ccc2c(c1)OCC[C@@H]2N1CCCC[C@H]1CCO (single isomer, unassigned) [Example 151]
0.0262	O=S(=O)(Nc1ncns1)c1ccc2c(c1)OCC[C@@H]2N1CCN(CC(F)F)C[C@H]1c1ccc(F)cc1 [Example 222, (S)-4-((R)-4-(2,2-difluoroethyl)-2-(4-fluorophenyl)piperazin-1-yl)-N-(1,2,4-thiadiazol-5-yl)chromane-7-sulfonamide]
0.0103	O=S(=O)(Nc1nccs1)c1cc2c(cc1F)[C@H](N1CC[C@@H](C(F)(F)F)C[C@H]1c1cccnc1)CCO2 [Example 193, (R)-6-fluoro-4-((2S,4R)-2-(pyridin-3-yl)-4-(trifluoromethyl)piperidin-1-yl)-N-(thiazol-2-yl)chroman-7-sulfonamide]
0.0901	O=S(=O)(Nc1nccs1)c1cc2c(cc1F)[C@H](N1CC[C@@H](C(F)(F)F)C[C@H]1c1ccncc1)CCO2 [Example 195, (R)-6-fluoro-4-((2S,4R)-2-(pyridin-4-yl)-4-(trifluoromethyl)piperidin-1-yl)-N-(thiazol-2-yl)chroman-7-sulfonamide]
0.000907	NC(=O)c1cccc([C@@H]2C[C@H](C(F)(F)F)CCN2[C@H]2CCOc3cc(S(=O)(=O)Nc4ncns4)ccc32)c1 [Example 205, 3-((2S,4R)-1-((S)-7-(N-(1,2,4-thiadiazol-5-yl)sulfamoyl)chroman-4-yl)-4-(trifluoromethyl)piperidin-2-yl)benzamide]
0.223	CN1CCN([C@H]2CCOc3cc(S(=O)(=O)Nc4ncns4)ccc32)[C@H](c2ccc(F)cc2)C1 [Example 221, (S)-4-((R)-2-(4-fluorophenyl)-4-methylpiperazin-1-yl)-N-(1,2,4-thiadiazol-5-yl)chromane-7-sulfonamide]
